One block for each compound: values may come before it.
Legend:
[1] = PAMPA-BBB in vitro permeability assay; type: in vitro ADME, porcine; parameters: key to Prediction (penetration in CNS): CNS- indicates low passive CNS permeation; settings: for Prediction (penetration in CNS): from PAMPA-BBB Pe, Pe less than 3.8 × 10^−6 cm s^−1 = low BBB permeation; for Papp at 120 min, 100 µg/ml: pig, PAMPA-BBB, porcine brain lipid, PBS/ethanol (70:30), 25 °C, mean ± SEM of three experiments, read-out: Pe
Protocol: As discussed above, BBB permeation of the available CB1 receptor antagonists limits their therapeutic utility. A successful CB1 receptor antagonist to be used as anti-obesity agent must be devoid of BBB permeability. […] In this study, the ability of the test compounds to cross the BBB was determined by the well established in vitro model PAMPA-BBB assay. This simple and rapid model has the advantage to predict passive BBB permeation with high accuracy[57],[58]. The in vitro permeability (Pe) of the test compounds through the lipid extract of porcine brain was determined in PBS/ethanol (70:30).
To assess the in vivo brain permeability potential of the test compounds, PAMPA assay for BBB was performed as reported by Di. et al.[57]. The donor microplate (polyvinylidene fluoride (PVDF) membrane, diameter 25 mm, pore size 0.45 µm Millipore) and the acceptor microplate were used for the experiment. The acceptor microplate was filled with 200 µl phosphate buffer saline (PBS) and ethanol in the ratio of 70:30 whereas the donor microplate filter surface was impregnated with porcine brain lipid (Avanti Polar Lipids) in dodecane (Sigma) (4 µl of 20 mg/ml). 200 µl of the test compound (100 µg/ml in PBS/ethanol) was added to the donor well. A sandwich was formed by placing the donor plate carefully on the acceptor plate, and the plates were kept undisturbed for 120 min at 25 °C. The donor plate was carefully detached after the incubation period and concentration of the test compound in the acceptor wells was determined using UV spectroscopy. Each sample was analyzed in four wells at five different wavelengths, and at least in three independent runs. Assay validation was performed by using nine commercial quality standard drugs of known BBB permeability[75] in which the reported permeability values of the standards were compared with their experimental permeability values, which gave a linear relationship, Pe(exp.) = 1.171Pe(bibl.) + 1.489 (R^2 = 0.983)[57],[58].

Wistar rats = assay: Acute hypophagic response in 24 h food-deprived rats; type: in vivo, rat; settings: for effect on food intake (in words): 2 h
Protocol: As a preliminary screening, the synthesized compounds were evaluated for acute hypophagia in rats and the results are summarized in Fig. 5. Twenty four hour food deprived Wistar rats were given weighed amounts of food pellets after administration of the test compounds. Quantum of food consumed by the control group of animals was considered as 100%.
Male Wistar rats weighing 200–250 g were used in the present study to assess the acute hypophagic response. Animals were housed individually in a plexi-glass cage in a temperature and humidity controlled room with a 12 h light/dark cycle. Standard chow pellets and water were made available ad libitum. Animals were handled daily for a week before performing the actual experiments. The animal study protocol was approved by the Institutional Animal Ethics Committee (IAEC) of Faculty of Pharmacy, The Maharaja Sayajirao University of Baroda (Approval no. MSU/IAEC/2014-15/1401). The experiments were conducted in accordance to the guidelines of CPCSEA (Committee for the Purpose of Control and Supervision of Experiments on Animals), Ministry of Environment & Forests, Govt. of India. We tried our best to reduce the number of animals and their suffering.
The acute effect of the synthesized test compounds on feeding behavior was assessed in 24 h food-deprived animals. Before performing the experiments, the bedding material was removed from the cage. The animals were deprived of feed for 24 h with free access to water. The fasted animals were administered with the test compounds (10 mg/kg, p.o.). After 30 min of administration, weighed amounts of food pellets were served to the animals. Amount of food pellets and food spillage remaining after 2 h were weighed to find out the amount of food consumed by the animals.

[2] = 24 h fasted male Wistar rats, 10 mg/kg p.o.
[3] = 24 h fasted male Wistar rats, 10 mg/kg p.o., food served after 30 min, intake over 2 h

Prediction (penetration in CNS) [1]: CNS- | Papp at 120 min, 100 µg/ml [1]: 3.58 ± 0.73 ×10⁻⁶ cm/s | melting point: 158 to 160 °C
SMILES: COc1ccc2c(c1)N(CCCSc1ncc(C#N)c(N)n1)c1ccccc1S2 [Compound 44, 4-Amino-2-(3-(2-methoxy-10H-phenothiazin-10-yl)propylthio)pyrimidine-5-carbonitrile]
food intake (control = 100%) (Wistar rats; [3]): 62–74%

melting point: 117 to 119 °C
SMILES: N#Cc1cnc(SCCCN2c3ccccc3Sc3ccccc32)nc1N [Compound 45, 4-Amino-2-(3-(10H-phenothiazin-10-yl)propylthio)pyrimidine-5-carbonitrile]

Prediction (penetration in CNS) [1]: CNS- | Papp at 120 min, 100 µg/ml [1]: 2.84 ± 0.28 ×10⁻⁶ cm/s | melting point: 118 to 120 °C
SMILES: CCOC(=O)c1cnc(SCCCN2c3ccccc3Sc3ccc(C(F)(F)F)cc32)nc1N [Compound 46, Ethyl 4-amino-2-(3-(2-trifluoromethyl-10H-phenothiazin-10-yl)propylthio)pyrimidine-5-carboxylate]
food intake (control = 100%) (Wistar rats; [3]): 62–74%

Prediction (penetration in CNS) [1]: CNS- | Papp at 120 min, 100 µg/ml [1]: 3.28 ± 0.38 ×10⁻⁶ cm/s | melting point: 120 to 122 °C
SMILES: CCOC(=O)c1cnc(SCCCN2c3ccccc3Sc3ccc(Cl)cc32)nc1N [Compound 47, Ethyl 4-amino-2-(3-(2-chloro-10H-phenothiazin-10-yl)propylthio)pyrimidine-5-carboxylate]
food intake (control = 100%) (Wistar rats; [3]): 62–74%

melting point: 106 to 108 °C
SMILES: CCOC(=O)c1cnc(SCCCN2c3ccccc3Sc3ccc(OC)cc32)nc1N [Compound 48, Ethyl 4-amino-2-(3-(2-methoxy-10H-phenothiazin-10-yl)propylthio)pyrimidine-5-carboxylate]

melting point: 146 to 148 °C
SMILES: CCOC(=O)c1cnc(SCCCN2c3ccccc3Sc3ccccc32)nc1N [Compound 49, Ethyl 4-amino-2-(3-(10H-phenothiazin-10-yl)propylthio)pyrimidine-5-carboxylate]

The remaining lines, values behind:

SMILES: N#Cc1cnc(SCC(=O)N2c3ccccc3Sc3ccc(C(F)(F)F)cc32)nc1N [Compound 5, 4-Amino-2-(2-(2-trifluoromethyl-10H-phenothiazin-10-yl)-2-oxoethylthio)pyrimidine-5-carbonitrile]
Prediction (penetration in CNS) [1]: CNS- | Papp at 120 min, 100 µg/ml [1]: 2.78 ± 0.14 ×10⁻⁶ cm/s | effect on food intake (in words) (Wistar rats; [2]): weak short acting hypophagic activity | food intake (control = 100%) (Wistar rats; 24 h fasted male Wistar rats, 10 mg/kg p.o., food served after 30 min, intake over 2 h, 10 mg/kg): 62–74% | food intake (control = 100%) (Wistar rats; po, 10 mg/kg): 62% | melting point: 218 to 220 °C

SMILES: N#Cc1cnc(SCC(=O)N2c3ccccc3Sc3ccc(Cl)cc32)nc1N [Compound 22, 4-Amino-2-(2-(2-chloro-10H-phenothiazin-10-yl)-2-oxoethylthio)pyrimidine-5-carbonitrile]
Prediction (penetration in CNS) [1]: CNS- | Papp at 120 min, 100 µg/ml [1]: 2.28 ± 0.11 ×10⁻⁶ cm/s | food intake (control = 100%) (Wistar rats; [3]): 62–74% | melting point: 222 to 224 °C

SMILES: N#Cc1cnc(SCC(=O)N2c3ccccc3Sc3ccccc32)nc1N [Compound 24, 4-Amino-2-(2-oxo-2-(10H-phenothiazin-10-yl)ethylthio)pyrimidine-5-carbonitrile]
melting point: 241 to 243 °C

SMILES: CCOC(=O)c1cnc(SCC(=O)N2c3ccccc3Sc3ccc(Cl)cc32)nc1N [Compound 26, Ethyl 4-amino-2-(2-(2-chloro-10H-phenothiazin-10-yl)-2-oxoethylthio)pyrimidine-5-carboxylate]
Prediction (penetration in CNS) [1]: CNS- | Papp at 120 min, 100 µg/ml [1]: 3.66 ± 0.67 ×10⁻⁶ cm/s | food intake (control = 100%) (Wistar rats; [3]): 62–74% | melting point: 156 to 158 °C

SMILES: CCOC(=O)c1cnc(SCC(=O)N2c3ccccc3Sc3ccccc32)nc1N [Compound 28, Ethyl 4-amino-2-(2-oxo-2-(10H-phenothiazin-10-yl)ethylthio)pyrimidine-5-carboxylate]
melting point: 202 to 204 °C

SMILES: O=C(CSc1nnc(-c2ccncc2)o1)N1c2ccccc2Sc2ccc(C(F)(F)F)cc21 [Compound 29, 2-(5-(4-Pyridyl)-1,3,4-oxadiazol-2-ylthio)-1-(2-trifluoromethyl-10H-phenothiazin-10-yl)ethanone]
melting point: 156 to 158 °C

SMILES: O=C(CSc1nnc(-c2ccncc2)o1)N1c2ccccc2Sc2ccc(Cl)cc21 [Compound 30, 1-(2-Chloro-10H-phenothiazin-10-yl)-2-(5-(4-pyridyl)-1,3,4-oxadiazol-2-ylthio)ethanone]
melting point: 194 to 196 °C

SMILES: COc1ccc2c(c1)N(C(=O)CSc1nnc(-c3ccncc3)o1)c1ccccc1S2 [Compound 31, 1-(2-Methoxy-10H-phenothiazin-10-yl)-2-(5-(4-pyridyl)-1,3,4-oxadiazol-2-ylthio)-ethanone]
melting point: 166 to 168 °C

SMILES: O=C(CSc1nnc(-c2ccncc2)o1)N1c2ccccc2Sc2ccccc21 [Compound 32, 1-(10H-Phenothiazin-10-yl)-2-(5-(4-pyridyl)-1,3,4-oxadiazol-2-ylthio)ethanone]
Prediction (penetration in CNS) [1]: CNS- | Papp at 120 min, 100 µg/ml [1]: 3.22 ± 0.63 ×10⁻⁶ cm/s | effect on food intake (in words) (Wistar rats; [2]): no effect on food intake | food intake (control = 100%) (Wistar rats; [3]): 80–99% | melting point: 212 to 214 °C

SMILES: Nn1c(SCC(=O)N2c3ccccc3Sc3ccc(C(F)(F)F)cc32)nnc1-c1ccncc1 [Compound 33, 2-(4-Amino-5-(4-pyridyl)-4H-1,2,4-triazol-3-ylthio)-1-(2-(trifluoromethyl)-10H-phenothiazin-10-yl)ethanone]
Prediction (penetration in CNS) [1]: CNS- | Papp at 120 min, 100 µg/ml [1]: 1.05 ± 0.22 ×10⁻⁶ cm/s | effect on food intake (in words) (Wistar rats; [2]): did not impact the food intake | food intake (control = 100%) (Wistar rats; [3]): 80–99% | melting point: 202 to 204 °C

SMILES: COc1ccc2c(c1)N(C(=O)CSc1nnc(-c3ccncc3)n1N)c1ccccc1S2 [Compound 35, 2-(4-Amino-5-(4-pyridyl)-4H-1,2,4-triazol-3-ylthio)-1-(2-methoxy-10H-phenothiazin-10-yl)ethanone]
melting point: 188 to 190 °C

SMILES: Nn1c(SCC(=O)N2c3ccccc3Sc3ccccc32)nnc1-c1ccncc1 [Compound 36, 2-(4-Amino-5-(4-pyridyl)-4H-1,2,4-triazol-3-ylthio)-1-(10H-phenothiazin-10-yl)ethanone]
melting point: 232 to 234 °C

SMILES: N#Cc1cnc(SCCCN2c3ccccc3Sc3ccc(C(F)(F)F)cc32)nc1N [Compound 42, 4-Amino-2-(3-(2-trifluoromethyl-10H-phenothiazin-10-yl)propylthio)pyrimidine-5-carbonitrile]
Prediction (penetration in CNS) [1]: CNS- | Papp at 120 min, 100 µg/ml [1]: 2.6 ± 0.18 ×10⁻⁶ cm/s | effect on food intake (in words) (Wistar rats; [2]): no effect on the food intake | food intake (control = 100%) (Wistar rats; [3]): 80–99% | melting point: 164 to 166 °C

SMILES: N#Cc1cnc(SCCCN2c3ccccc3Sc3ccc(Cl)cc32)nc1N [Compound 43, 4-Amino-2-(3-(2-chloro-10H-phenothiazin-10-yl)propylthio)pyrimidine-5-carbonitrile]
Prediction (penetration in CNS) [1]: CNS- | Papp at 120 min, 100 µg/ml [1]: 3.47 ± 0.66 ×10⁻⁶ cm/s | food intake (control = 100%) (Wistar rats; [3]): 62–74% | melting point: 138 to 140 °C
